Where two headings read alike, the source gives them in different places.
Biological target: T1, AmpC β-lactamase (Escherichia coli, UniProt P00811)
T1 construct: made in house
Experiment: biochemical
Assay type: biochemical
Method: FIG. 18. Representative IC50 curves. […] IC50 curves were obtained by measuring rates (in duplicates) at different inhibitor concentrations (x-axis) and by determining the residual activity (y-axis, in percentage). IC50 values were determined by non-linear regression and Ki values calculated using GraphPad software assuming competitive inhibition.
Sulfonamidomethaneboronic acids were dissolved in 100% DMSO at a concentration of 100 mM; more diluted stocks were prepared as necessary. […] The enzyme was expressed and purified as described (Usher, K. C. et al., Biochemistry 1998, 37, 16082-16092) and CENTA was purchased from Tydock Pharma.
Kinetic measurements were run at room temperature in 50 mM sodium-cacodylate pH 6.5 in the presence of 0.01% Triton-X to prevent non-specific inhibition via compound aggregation. […] (Kettner, C. A. and Shenvi, A. B., J. Biol. Chem. 1984, 259, 15106-15114) Reactions were performed in 1 mL cuvettes with 60 μM CENTA and initiated by adding 1.2 nM enzyme. […] (Weston, G. S. et al., J. Med. Chem. 1998, 41, 4577-4586) The first 180 sec of each reaction were used to measure initial rates. IC50 values were obtained by fitting binding data to a sigmoidal dose-response equation using GraphPad Prism (GraphPad software, Inc). Ki values were determined by the use of Cheng-Prusoff equation. (Cheng, Y. and Prusoff, W. H., Biochem. Pharmacol. 1973, 22, 3099-3108)

T1 sequence (P00811 20-377): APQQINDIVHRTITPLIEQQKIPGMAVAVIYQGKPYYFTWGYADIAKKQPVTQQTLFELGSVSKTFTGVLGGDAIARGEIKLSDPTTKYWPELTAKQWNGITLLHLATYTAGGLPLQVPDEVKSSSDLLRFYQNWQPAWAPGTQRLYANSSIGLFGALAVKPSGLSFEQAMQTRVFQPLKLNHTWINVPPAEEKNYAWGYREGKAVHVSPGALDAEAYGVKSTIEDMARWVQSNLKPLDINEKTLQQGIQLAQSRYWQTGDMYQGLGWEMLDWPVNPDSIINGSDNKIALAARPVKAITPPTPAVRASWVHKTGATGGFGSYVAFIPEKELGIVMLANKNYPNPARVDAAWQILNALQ

Compound | Ki (Ki Vs AmpC, Table 7) [µM] | Ki (Table 7, read-out: Ki Vs AmpC) [µM] | also measured
Cc1ccc(S(=O)(=O)N(C)CB(O)O)cc1 [CR14] | 0.63 | – | –
Cc1ccc(S(=O)(=O)N(CB(O)O)C(C)(C)C)cc1 [CR17] | 2.5 | – | –
CC(C)(C)N(CB(O)O)S(=O)(=O)Cc1ccccc1 [CR22] | 5.1 | – | –
N#Cc1ccc(S(=O)(=O)NCB(O)O)cc1 [CR162, [4-cyanobenzensulfonylamino]methaneboronic acid] | 0.31 | – | Ki (Ki vs AmpC, Table 8): 0.31 µM
N#Cc1ccc(S(=O)(=O)NCB(O)O)cn1 [CR163, [6-cyanopyridin-3-sulfonylamino]methaneboronic acid hydrocloride] | 0.27 | – | Ki (Ki vs AmpC, Table 8): 0.27 µM
CC(C)[C@H](NS(=O)(=O)Cc1ccccc1)B(O)O [CR173, (1R)-1-(Phenylmethanesulfonylamino)-2-methylpropaneboronic acid] | 13 | – | –
CC(C)[C@H](NS(C)(=O)=O)B(O)O [CR175, (1R)-1-(Methylsulfonylamino)-2-methylpropaneboronic acid] | 100 | – | –
CC1(C)OB(c2ccccc2NS(=O)(=O)Cc2ccccc2)OC1(C)C [CR180, Pinacol 2-(phenylmethanesulfonylamino)phenylboronate] | – | 0.2 | –
CC1(C)OB(c2ccccc2NS(C)(=O)=O)OC1(C)C [CR181, Pinacol 2-(methylsulfonylamino)phenylboronate] | – | 0.4 | –
CS(=O)(=O)NCB(O)O [Compound 3, Pinacol(methanesulfonylamino)methaneboronate] | – | – | Ligand efficiency: 0.91; Ki (Ki vs AmpC, Table 8): 0.8 µM; improvement of potency compared to the carboxamide analog (ratio of Ki values): 23 fold; Ki (read-out: Ki): 0.789 µM
O=[N+]([O-])c1cccc(CS(=O)(=O)NCB(O)O)c1 [Compound 6] | – | 0.189 | –
COC(=O)c1ccc(CS(=O)(=O)NCB(O)O)cc1 [Compound 8] | – | 0.12 | –
CCOc1ccc2ccccc2c1S(=O)(=O)NCB(O)O [Compound 11, (2-Ethoxy-naphthalene-1-sulfonylamino)methaneboronic acid] | – | – | Ki (read-out: Ki): 0.67 µM
O=S(=O)(Cc1ccccc1)N[C@@H](Cc1ccccc1)B(O)O [Compound 16, (1R)-1-(phenylmethanesulfonylamino)-2-phenylethaneboronic acid] | – | 3.72 | Ki (Table 1, read-out: Ki): 3.72 µM
O=C(Cc1cccs1)N[C@@H](Cc1cccc(C(=O)O)c1)B(O)O [Compound 17c, reference compound] | – | – | Ki (Table 1, read-out: Ki): 0.039 µM
C[C@H](NS(C)(=O)=O)B(O)O [GBS32, (1R)-1-(Methylsulfonylamino)-1-ethaneboronic acid] | 0.65 | – | –
C[C@H](NS(=O)(=O)Cc1ccccc1)B(O)O [GBS34, (1R)-1-(Phenylmethanesulfonylamino)-1-ethaneboronic acid] | 0.31 | – | –
O=C(Cc1cccs1)N[C@H](B(O)O)c1cccc(C(=O)O)c1 [SM23, reference compound] | – | – | Ligand efficiency (Table 5): 0.55
Pinacol(3-cyanopropane-1-sulfonylamino)methaneboronate [CR135] | – | 0.2 | –
Pinacol(isopropylsulfonylamino)methaneboronate [GBS22] | – | 0.1 | –

From patent publication US9371337B2, “β-lactamase inhibitors” (The Regents of the University of California, priority 2011, dated 2016)
